Biological target: TYK2 (Homo sapiens, UniProt P29597)
Assay: TYK2 protein degradation in NOMO-1 cells by immunoblotting
Assay type: cell-based
Design: endogenous in cells
Conditions: NOMO-1 cells
Protocol: NOMO-1 cells were treated with CPD-155, CPD-157, and CPD-158 at 0.1, 1, 10, 100 and 1000 nM concentrations for 16 hours. […] Data shown that CPD-155, CPD-157, and CPD-158 are very potent at the reduction protein levels of TYK2.
MOLT-4 or NOMO-1 cells were cultured at 37° C. with 5% CO2 in RPMI 1640 Medium supplemented with 10% fetal bovine serum. Cells were authenticated using the short tandem repeat (STR) assays. Mycoplasma test results were negative.
Cultured cells were washed with cold PBS once and lysed in cold RIPA buffer supplemented with protease inhibitors and phosphatase inhibitors (Beyotime Biotechnology). The solutions were then incubated at 4° C. for 30 minutes with gentle agitation to fully lyse cells. Cell lysates were centrifuged at 13,000 rpm for 10 minutes at 4° C. and pellets were discarded. Total protein concentrations in the lysates were determined by BCA assays (Beyotime Biotechnology). Cell lysates were mixed with Laemmli loading buffer to 1× and heated at 99° C. for 5 min. Proteins were resolved on SDS-PAGE and visualized by chemiluminescence. Images were taken by a ChemiDoc MP Imaging system (Bio-Rad). Protein bands were quantitated using the accompanied software provided by Bio-Rad.

Sequence of TYK2 (P29597 whole entry): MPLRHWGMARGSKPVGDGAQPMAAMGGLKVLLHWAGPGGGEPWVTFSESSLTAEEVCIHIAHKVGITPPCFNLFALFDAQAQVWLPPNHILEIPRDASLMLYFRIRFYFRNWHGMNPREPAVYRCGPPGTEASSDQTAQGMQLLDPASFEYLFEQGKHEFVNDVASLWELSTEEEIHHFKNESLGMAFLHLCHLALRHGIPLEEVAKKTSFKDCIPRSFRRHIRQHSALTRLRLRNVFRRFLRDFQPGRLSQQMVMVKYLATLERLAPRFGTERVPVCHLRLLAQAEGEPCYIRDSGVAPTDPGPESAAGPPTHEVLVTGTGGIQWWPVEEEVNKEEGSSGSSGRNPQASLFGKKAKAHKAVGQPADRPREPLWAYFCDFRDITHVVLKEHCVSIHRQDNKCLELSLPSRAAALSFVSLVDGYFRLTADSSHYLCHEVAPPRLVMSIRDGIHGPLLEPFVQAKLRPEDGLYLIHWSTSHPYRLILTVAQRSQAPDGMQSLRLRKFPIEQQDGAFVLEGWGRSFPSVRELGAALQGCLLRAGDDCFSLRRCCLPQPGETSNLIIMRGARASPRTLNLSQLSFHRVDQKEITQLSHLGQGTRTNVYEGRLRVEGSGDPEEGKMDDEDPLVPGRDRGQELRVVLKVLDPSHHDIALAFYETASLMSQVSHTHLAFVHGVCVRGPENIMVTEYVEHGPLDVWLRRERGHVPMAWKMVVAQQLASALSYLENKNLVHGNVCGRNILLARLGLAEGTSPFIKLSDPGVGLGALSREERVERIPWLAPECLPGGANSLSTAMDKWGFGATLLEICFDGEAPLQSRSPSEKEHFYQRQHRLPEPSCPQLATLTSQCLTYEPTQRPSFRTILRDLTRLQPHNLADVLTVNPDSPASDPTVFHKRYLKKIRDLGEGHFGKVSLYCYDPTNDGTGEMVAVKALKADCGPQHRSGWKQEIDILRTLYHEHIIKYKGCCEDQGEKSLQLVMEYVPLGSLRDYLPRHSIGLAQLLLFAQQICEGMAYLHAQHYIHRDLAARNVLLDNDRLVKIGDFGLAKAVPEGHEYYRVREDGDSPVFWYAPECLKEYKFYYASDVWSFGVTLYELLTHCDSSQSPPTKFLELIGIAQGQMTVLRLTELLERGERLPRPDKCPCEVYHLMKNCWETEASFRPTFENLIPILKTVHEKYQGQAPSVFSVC

SMILES | TYK2 Degradation (NOMO-1, 10 nM) | TYK2 Degradation (NOMO-1, 100 nM)
CNC(=O)c1nnc(Nc2ccc(CNC(=O)CCCCC(=O)N[C@H](C(=O)N3C[C@H](O)C[C@H]3C(=O)N[C@@H](C)c3ccc(-c4scnc4C)cc3)C(C)(C)C)cn2)cc1Nc1cccc(-c2ncn(C)n2)c1OC [CPD-129, N1-((S)-1-((2S,4R)-4-Hydroxy-2-(((S)-1-(4-(4-methylthiazol-5-yl)phenyl)ethyl)carbamoyl)pyrrolidin-1-yl)-3,3-dimethyl-1-oxobutan-2-yl)-N6-((6-((5-((2-methoxy-3-(1-methyl-1H-1,2,4-triazol-3-yl)phenyl)amino)-6-(methylcarbamoyl)pyridazin-3-yl)amino)pyridin-3-yl)methyl)adipamide] | C (C: ≤20% TYK2 degradation) | A (A: ≥60% TYK2 degradation)
CNC(=O)c1nnc(Nc2ccc(C(=O)NCCCCCCCNc3ccc4c(c3)C(=O)N(C3CCC(=O)NC3=O)C4=O)cn2)cc1Nc1cccc(-c2ncn(C)n2)c1OC (centres unmarked) [CPD-166, 6-((5-((7-((2-(2,6-dioxopiperidin-3-yl)-1,3-dioxoisoindolin-5-yl)amino)heptyl)carbamoyl)pyridin-2-yl)amino)-4-((2-methoxy-3-(1-methyl-1H-1,2,4-triazol-3-yl)phenyl)amino)-N-methylpyridazine-3-carboxamide] | – | C (C: ≤20% TYK2 degradation)
CNC(=O)c1nnc(Nc2ccc(CNC(=O)CCCCCCCC(=O)N[C@H](C(=O)N3C[C@H](O)C[C@H]3C(=O)N[C@@H](C)c3ccc(-c4scnc4C)cc3)C(C)(C)C)cn2)cc1Nc1cccc(-c2ncn(C)n2)c1OC [CPD-132, N1-((S)-1-((2S,4R)-4-Hydroxy-2-(((S)-1-(4-(4-methylthiazol-5-yl)phenyl)ethyl)carbamoyl)pyrrolidin-1-yl)-3,3-dimethyl-1-oxobutan-2-yl)-N9-((6-((5-((2-methoxy-3-(1-methyl-1H-1,2,4-triazol-3-yl)phenyl)amino)-6-(methylcarbamoyl)pyridazin-3-yl)amino)pyridin-3-yl)methyl)nonanediamide] | – | A (A: ≥60% TYK2 degradation)
CNC(=O)c1nnc(Nc2ccc(N3CCN(C4CCN(C(=O)CCCC(=O)N[C@H](C(=O)N5C[C@H](O)C[C@H]5C(=O)N[C@@H](C)c5ccc(-c6scnc6C)cc5)C(C)(C)C)CC4)CC3)cn2)cc1Nc1cccc(-c2ncn(C)n2)c1OC [CPD-146, 6-((5-(4-(1-(5-(((S)-1-((2S,4R)-4-Hydroxy-2-(((S)-1-(4-(4-methylthiazol-5-yl)phenyl)ethyl)carbamoyl)pyrrolidin-1-yl)-3,3-dimethyl-1-oxobutan-2-yl)amino)-5-oxopentanoyl)piperidin-4-yl)piperazin-1-yl)pyridin-2-yl)amino)-4-((2-methoxy-3-(1-methyl-1H-1,2,4-triazol-3-yl)phenyl)amino)-N-methylpyridazine-3-carboxamide] | B (B: <60% TYK2 degradation, and >20% TYK2 degradation) | A (A: ≥60% TYK2 degradation)
CNC(=O)c1nnc(Nc2ccc(CNC(=O)CCC(=O)N[C@H](C(=O)N3C[C@H](O)C[C@H]3C(=O)N[C@@H](C)c3ccc(-c4scnc4C)cc3)C(C)(C)C)cn2)cc1Nc1cccc(-c2ncn(C)n2)c1OC [CPD-128, N1-((S)-1-((2S,4R)-4-Hydroxy-2-(((S)-1-(4-(4-methylthiazol-5-yl)phenyl)ethyl)carbamoyl)pyrrolidin-1-yl)-3,3-dimethyl-1-oxobutan-2-yl)-N4-((6-((5-((2-methoxy-3-(1-methyl-1H-1,2,4-triazol-3-yl)phenyl)amino)-6-(methylcarbamoyl)pyridazin-3-yl)amino)pyridin-3-yl)methyl)succinamide] | – | C (C: ≤20% TYK2 degradation)
CNC(=O)c1nnc(Nc2ccc(N3CCN(C(=O)CCCCCCC(=O)N[C@H](C(=O)N4C[C@H](O)C[C@H]4C(=O)NCc4ccc(C#N)cn4)C(C)(C)C)CC3)cn2)cc1Nc1cccc(-c2ncn(C)n2)c1OC [CDD-172, 6-((5-(4-(8-(((S)-1-((2S,4R)-2-(((5-cyanopyridin-2-yl)methyl)carbamoyl)-4-hydroxypyrrolidin-1-yl)-3,3-dimethyl-1-oxobutan-2-yl)amino)-8-oxooctanoyl)piperazin-1-yl)pyridin-2-yl)amino)-4-((2-methoxy-3-(1-methyl-1H-1,2,4-triazol-3-yl)phenyl)amino)-N-methylpyridazine-3-carboxamide] | C (C: ≤20% TYK2 degradation) | C (C: ≤20% TYK2 degradation)
CNC(=O)c1nnc(Nc2ccc(N3CCN(C(=O)CCCCCCC(=O)N[C@H](C(=O)N4C[C@H](O)C[C@H]4C(=O)N[C@H]4CCCc5[nH]c(=O)c(C)cc54)C(C)(C)C)CC3)cn2)cc1Nc1cccc(-c2ncn(C)n2)c1OC [CDD-174, 6-((5-(4-(8-(((S)-1-((2S,4R)-4-hydroxy-2-(((S)-3-methyl-2-oxo-1,2,5,6,7,8-hexahydroquinolin-5-yl)carbamoyl)pyrrolidin-1-yl)-3,3-dimethyl-1-oxobutan-2-yl)amino)-8-oxooctanoyl)piperazin-1-yl)pyridin-2-yl)amino)-4-((2-methoxy-3-(1-methyl-1H-1,2,4-triazol-3-yl)phenyl)amino)-N-methylpyridazine-3-carboxamide] | C (C: ≤20% TYK2 degradation) | C (C: ≤20% TYK2 degradation)
CNC(=O)c1nnc(Nc2ccc(N3CCN(C4CCN(C(=O)CCC(=O)N[C@H](C(=O)N5C[C@H](O)C[C@H]5C(=O)N[C@@H](C)c5ccc(-c6scnc6C)cc5)C(C)(C)C)CC4)CC3)cn2)cc1Nc1cccc(-c2ncn(C)n2)c1OC [CPD-145, 6-((5-(4-(1-(4-(((S)-1-((2S,4R)-4-Hydroxy-2-(((S)-1-(4-(4-methylthiazol-5-yl)phenyl)ethyl)carbamoyl)pyrrolidin-1-yl)-3,3-dimethyl-1-oxobutan-2-yl)amino)-4-oxobutanoyl)piperidin-4-yl)piperazin-1-yl)pyridin-2-yl)amino)-4-((2-methoxy-3-(1-methyl-1H-1,2,4-triazol-3-yl)phenyl)amino)-N-methylpyridazine-3-carboxamide] | – | B (B: <60% TYK2 degradation, and >20% TYK2 degradation)
CNC(=O)c1nnc(Nc2ccc(C(=O)NCCCCCCCCC(=O)N[C@H](C(=O)N3C[C@H](O)C[C@H]3C(=O)N[C@@H](C)c3ccc(-c4scnc4C)cc3)C(C)(C)C)cn2)cc1Nc1cccc(-c2ncn(C)n2)c1OC [CPD-144, 6-((5-((9-(((S)-1-((2S,4R)-4-hydroxy-2-(((S)-1-(4-(4-methylthiazol-5-yl)phenyl)ethyl)carbamoyl)pyrrolidin-1-yl)-3,3-dimethyl-1-oxobutan-2-yl)amino)-9-oxononyl)carbamoyl)pyridin-2-yl)amino)-4-((2-methoxy-3-(1-methyl-1H-1,2,4-triazol-3-yl)phenyl)amino)-N-methylpyridazine-3-carboxamide] | A (A: ≥60% TYK2 degradation) | A (A: ≥60% TYK2 degradation)
CNC(=O)c1nnc(Nc2ccc(C#CC3CCN(C(=O)CCCCCCCCC(=O)N[C@H](C(=O)N4C[C@H](O)C[C@H]4C(=O)N[C@@H](C)c4ccc(-c5scnc5C)cc4)C(C)(C)C)CC3)cn2)cc1Nc1cccc(-c2ncn(C)n2)c1OC [CPD-121, 6-((5-((1-(10-(((S)-1-((2S,4R)-4-hydroxy-2-(((5)-1-(4-(4-methylthiazol-5-yl)phenyl)ethyl)carbamoyl)pyrrolidin-1-yl)-3,3-dimethyl-1-oxobutan-2-yl)amino)-10-oxodecanoyl)piperidin-4-yl)ethynyl)pyridin-2-yl)amino)-4-((2-methoxy-3-(1-methyl-1H-1,2,4-triazol-3-yl)phenyl)amino)-N-methylpyridazine-3-carboxamide] | A (A: ≥60% TYK2 degradation) | A (A: ≥60% TYK2 degradation)
CNC(=O)c1nnc(Nc2ccc(N3CCN(C(=O)CCCCCCCCC(=O)N[C@H](C(=O)N4C[C@H](O)C[C@H]4C(=O)N[C@@H](C)c4ccc(-c5scnc5C)cc4)C(C)(C)C)CC3)cn2)cc1Nc1cccc(-c2ncn(C)n2)c1OC [CPD-114, 6-((5-(4-(10-(((S)-1-((2S,4R)-4-hydroxy-2-(((S)-1-(4-(4-methylthiazol-5-yl)phenyl)ethyl)carbamoyl)pyrrolidin-1-yl)-3,3-dimethyl-1-oxobutan-2-yl)amino)-10-oxodecanoyl)piperazin-1-yl)pyridin-2-yl)amino)-4-((2-methoxy-3-(1-methyl-1H-1,2,4-triazol-3-yl)phenyl)amino)-N-methylpyridazine-3-carboxamide] | A (A: ≥60% TYK2 degradation) | A (A: ≥60% TYK2 degradation)
CNC(=O)c1nnc(Nc2ccc(C#CC3CN(C(=O)CCCC(=O)N[C@H](C(=O)N4C[C@H](O)C[C@H]4C(=O)N[C@@H](C)c4ccc(-c5scnc5C)cc4)C(C)(C)C)C3)cn2)cc1Nc1cccc(-c2ncn(C)n2)c1OC [CPD-135, 6-((5-((1-(5-(((S)-1-((2S,4R)-4-Hydroxy-2-(((S)-1-(4-(4-methylthiazol-5-yl)phenyl)ethyl)carbamoyl)pyrrolidin-1-yl)-3,3-dimethyl-1-oxobutan-2-yl)amino)-5-oxopentanoyl)azetidin-3-yl)ethynyl)pyridin-2-yl)amino)-4-((2-methoxy-3-(1-methyl-1H-1,2,4-triazol-3-yl)phenyl)amino)-N-methylpyridazine-3-carboxamide] | B (B: <60% TYK2 degradation, and >20% TYK2 degradation) | A (A: ≥60% TYK2 degradation)

Source: patent publication US20240059671A1, “TYROSINE KINASE 2 (TYK2) DEGRADATION COMPOUNDS AND METHODS OF USE” (CULLGEN (SHANGHAI), INC., priority 2020, published 2024)
